How the values were obtained:
S. pyogenes = test: Clinical treatment of tonsillitis, eradication of the pathogen; format: in vivo, Streptococcus pyogenes; conditions: for Eradication, %: S. pyogenes tonsillitis patients
Description: (§1) This pathology was chosen by us as one of the above lists to confirm the effectiveness and practical applicability of the claimed compound. The study was performed on two groups of patients, totaling 138 people, who received the drug enterally twice a day at doses from 500 mg to 2000 mg. The compound was administered as a pharmaceutical composition containing Compound 1a in acetate form in an isotonic solution of a pharmaceutically acceptable sodium chloride carrier.

H. influenzae [1] = test: MIC of 1a and its combinations with antimicrobials, serial dilutions; format: cell-based, Haemophilus influenzae; conditions: liquid nutrient medium, substance alone
Description: We used a strain of H. influenzae grown on a liquid nutrient medium. The minimum inhibitory concentration was determined by the method of serial dilutions.

[2] = tested on: various strains of S. aureus; test: Effects on various strains of S. aureus (MRSA, VRSA, MSSA), overall; format: cell-based, Staphylococcus aureus; conditions: S. aureus strains of Table 3
Description: (§2) Determination of the antimicrobial activity of substances was carried out on dense and liquid nutrient media. To assess the minimum inhibitory concentration (MIC), the serial dilution method was used, according to the recommendations of CLSI (Clinical Laboratories and Standards Institute, formerly National Committee for Clinical Laboratory Standards) (Clinical Laboratories and Standards Institute. Methods for Dilution Antimicrobial Susceptibility Tests for Bacteria That Grow Aerobically; Approved Standard—Seventh Edition Document M7-A7 CLSI, Wayne, Pa., 2006; Clinical Laboratories and Standards Institute).
(§3) The study of the effect of Compound 1a on strains with multiple resistance to existing antibiotics was performed on fresh clinical isolates of strains: S. aureus VT-V-18, S. aureus VT-E-25 S. aureus VT-A-199 and S. aureus VT-P-82, as well as S. aureus strain American Type Culture Collection (Rockville, Md.) and strains S. aureus SA77 and S. aureus SA85,

L. monocytogenes = test: MIC by serial dilution (CLSI), firmicutes bacteria; format: cell-based
S pyogenes = test: MIC by serial dilution (CLSI), firmicutes bacteria; format: cell-based, Streptococcus pyogenes; conditions: fresh clinical isolate
Description: as §2
(§4) The assessment of the antimicrobial activity of substances against firmicute bacteria was performed on fresh clinical isolates of strains of Streptococcus pyogenes, Streptococcus mitis, Bacillus subtilis, Bacillus cereus, Corynebacterium ulcerans, Micrococcus luteus.

B. subtilis = test: MIC by serial dilution (CLSI), firmicutes bacteria; format: cell-based, Bacillus subtilis; conditions: fresh clinical isolate
Description: as §2, §4

S. aureus = test: Clinical treatment of tonsillitis, eradication of the pathogen; format: in vivo, Staphylococcus aureus; conditions: for Eradication, %: S. aureus tonsillitis patients
Description: as §1

[3] = tested on: Staphylococcus aureus ATCC 38591; test: Acute generalized infection in C57BL6 mice, death of mice; format: in vivo; conditions: 10 mice
Description: To study the chemotherapeutic efficacy, a model of acute generalized infection in small animals was used. C57BL6 mice were intraperitoneally infected with Staphylococcus aureus ATCC 38591 at a dose of 1×10^8 microbial cells. The infectious dose was established in preliminary studies. Mice infected with the same dose of microbial culture but not treated served as controls.
The preparations were dissolved in an isotonic sodium chloride solution and substance 1a or Lincomycin was administered. 2 hours after infection, the drugs were administered orally daily at doses of 10 to 100 mg/kg, 2 times a day.
The death of mice was taken into account daily for 7 days.

S. aureus VT-V-18 = test: MIC, S. aureus strains with multiple resistance; format: cell-based, Staphylococcus aureus; conditions: VT-V-18, MRSA strain, clinical isolate
Description: as §2, §3

S. aureus VT-P-82 = test: MIC, S. aureus strains with multiple resistance; format: cell-based, Staphylococcus aureus; conditions: VT-P-82, MRSA strain, clinical isolate
Description: as §2, §3

S. aureus VT-A-199 = test: MIC, S. aureus strains with multiple resistance; format: cell-based, Staphylococcus aureus; conditions: VT-A-199, MRSA strain, clinical isolate
Description: as §2, §3

S. aureus SA77 = test: MIC, S. aureus strains with multiple resistance; format: cell-based, Staphylococcus aureus; conditions: SA77, VRSA strain
Description: as §2, §3

S. aureus VT-E-25 = test: MIC, S. aureus strains with multiple resistance; format: cell-based, Staphylococcus aureus; conditions: VT-E-25, MRSA strain, clinical isolate
Description: as §2, §3

S. aureus SA85 = test: MIC, S. aureus strains with multiple resistance; format: cell-based, Staphylococcus aureus; conditions: SA85, VRSA strain
Description: as §2, §3

H. influenzae [4] = test: MIC, gracilicutes and wall-less bacteria; format: cell-based, Haemophilus influenzae; conditions: fresh clinical isolate, Table 2
Description: as §2, with “Institute). The study of the effect on strains was performed on fresh clinical isolates of Haemophilus influenzae, Neisseria meningitides, Ureaplasma urealyticum strains, as well as on the Escherichia coli ATCC29592 strain.” for “Institute).”

M. lutteus = test: MIC by serial dilution (CLSI), firmicutes bacteria; format: cell-based, Micrococcus luteus; conditions: fresh clinical isolate
Description: as §2, §4

S. mitis = test: MIC by serial dilution (CLSI), firmicutes bacteria; format: cell-based, Streptococcus mitis; conditions: fresh clinical isolate
Description: as §2, §4

N. meningitides = test: MIC, gracilicutes and wall-less bacteria; format: cell-based, Neisseria meningitides; conditions: fresh clinical isolate
Description: as §2, with “Institute). The study of the effect on strains was performed on fresh clinical isolates of Haemophilus influenzae, Neisseria meningitides, Ureaplasma urealyticum strains, as well as on the Escherichia coli ATCC29592 strain.” for “Institute).”

C. ulcerans = test: MIC by serial dilution (CLSI), firmicutes bacteria; format: cell-based, Corynebacterium ulcerans; conditions: fresh clinical isolate
Description: as §2, §4

[5] = tested on: S. aureus ANCC29213 biofilms; test: Survival of bacteria in biofilms (CFU count); format: cell-based, Staphylococcus aureus; conditions: 10 μg/ml; for Number of CFU: 24 h biofilm, incubated 24 hours at 37° C.
Description: S. aureus ANCC29213 bacteria were grown in a 24-well plateau in LB medium for 24 hours at 37° C. After that, Compound 1a and lincomycin (8 wells for each preparation and control without preparations) were added to the wells at final concentrations of 10 μg/ml and incubated for 24 hours at 37° C. After incubation, the medium was removed, the biofilms were washed with a sterile solution of isotonic sodium chloride, the biofilms were removed from the bottom of the wells, resuspended in isotonic sodium chloride solution, and the number of colony forming units (CFU) was determined by the method of serial dilutions.

S. aureus ATCC 29213 = test: MIC by serial dilution (CLSI), S. aureus ATCC 29213; format: cell-based, Staphylococcus aureus
U. urealyticum = test: MIC, gracilicutes and wall-less bacteria; format: cell-based, Ureaplasma urealyticum; conditions: fresh clinical isolate
Description: as §2, with “Institute). The study of the effect on strains was performed on fresh clinical isolates of Haemophilus influenzae, Neisseria meningitides, Ureaplasma urealyticum strains, as well as on the Escherichia coli ATCC29592 strain.” for “Institute).”

[6] = tested on: Escherichia coli ATCC29592; test: MIC, gracilicutes and wall-less bacteria; format: cell-based; conditions: E. coli ATCC29592
Description: as §2, with “Institute). The study of the effect on strains was performed on fresh clinical isolates of Haemophilus influenzae, Neisseria meningitides, Ureaplasma urealyticum strains, as well as on the Escherichia coli ATCC29592 strain.” for “Institute).”

B. cereus = test: MIC by serial dilution (CLSI), firmicutes bacteria; format: cell-based, Bacillus cereus; conditions: fresh clinical isolate
Description: as §2, §4

[7] = tested on: methicillin- and vancomycin-resistant strains of Staphylococcus aureus and Streptococcus spp; conditions: literature statement; cited from earlier work
[8] = 10 mg/kg orally 2 times a day, day 2
[9] = 10 mg/kg orally 2 times a day, day 4
[10] = 20 mg/kg orally 2 times a day, day 3
[11] = 20 mg/kg orally 2 times a day, day 4
[12] = Haemophilus influenzae, read-out: MIC

## CC(=O)[O-].O=c1[nH]c(=O)c2cc3cc(Br)cc(Br)c3[o+]c2[nH]1 [Compound 1a, 7,9-dibromo-2,4-dioxo-1,2,3,4-tetrahydrochromeno[2,3-d]-pyrimidinium-10 acetate]
S. pyogenes; day 4
  Eradication, %: 94.37%
  Eradication, Number of patients: 67
S. pyogenes; day 8
  Eradication, %: 95.77%
  Eradication, Number of patients: 68
S. pyogenes; day 14
  Eradication, %: 95.77%
  Eradication, Number of patients: 68
H. influenzae [1]
  MIC: 10.0 µg/mL
[2]
  Resistance: Not detected
  efficacy on methicillin/vancomycin-resistant versus susceptible strains: did not differ
L. monocytogenes
  MIC: 1.0 µg/mL
S pyogenes
  MIC: 0.1 µg/mL
B. subtilis
  MIC: 1.0 µg/mL
S. aureus; day 4, enterally twice a day
  Eradication, %: 85.14%
  Eradication, Number of patients: 63
S. aureus; day 8
  Eradication, %: 91.89%
  Eradication, Number of patients: 68
S. aureus; day 14
  Eradication, %: 94.59%
  Eradication, Number of patients: 70
[3]; [8]
  Mice death: 1
[3]; [9]
  Mice death: 1
[3]; 10 mg/kg orally 2 times a day, day 5
  Mice death: 2
[3]; 10 mg/kg orally 2 times a day, day 6
  Mice death: 1
[3]; [10]
  Mice death: 1
[3]; [11]
  Mice death: 1
[3]; 20 mg/kg orally 2 times a day, day 5
  Mice death: 2
S. aureus VT-V-18
  MIC: 0.5 µg/mL
S. aureus VT-P-82
  MIC: 2.0 µg/mL
S. aureus VT-A-199
  MIC: 1.0 µg/mL
S. aureus SA77
  MIC: 0.5 µg/mL
S. aureus VT-E-25
  MIC: 1.0 µg/mL
S. aureus SA85
  MIC: 1.0 µg/mL
H. influenzae [4]
  MIC: 10.0 µg/mL
M. lutteus
  MIC: 1.0 µg/mL
S. mitis
  MIC: 0.1 µg/mL
N. meningitides
  MIC: 10.0 µg/mL
C. ulcerans
  MIC: 0.5 µg/mL
[5]; 24 hours
  reduction of the number of bacteria capable of growth in biofilms: 1000 times
[5]
  Number of CFU: 4.0 ± 1.0 × 10^5 CFU
S. aureus ATCC 29213; ATCC 29213, strain MSSA, Table 3
  MIC: 0.5 µg/mL
S. aureus ATCC 29213; S. aureus ATCC 29213, Table 1
  MIC: 0.5 µg/mL
U. urealyticum
  MIC: 10.0 µg/mL
[6]
  MIC: 20.0 µg/mL
B. cereus
  MIC: 1.0 µg/mL

## O=C([O-])CCC(=O)[O-].O=c1[nH]c(=O)c2cc3cc(Br)cc(Br)c3[o+]c2[nH]1.O=c1[nH]c(=O)c2cc3cc(Br)cc(Br)c3[o+]c2[nH]1 [Compound 1b, 7,9-dibromo-2,4-dioxo-1,2,3,4-tetrahydrochromeno[2,3-d]-pyrimidinium-10 succinate]
L. monocytogenes
  MIC: 4.0 µg/mL
S pyogenes
  MIC: 2.0 µg/mL
B. subtilis
  MIC: 2.0 µg/mL
H. influenzae [4]
  MIC: 20.0 µg/mL
M. lutteus
  MIC: 2.0 µg/mL
S. mitis
  MIC: 2.0 µg/mL
N. meningitides
  MIC: 20.0 µg/mL
C. ulcerans
  MIC: 2.0 µg/mL
S. aureus ATCC 29213; S. aureus ATCC 29213, Table 1
  MIC: 1.0 µg/mL
U. urealyticum
  MIC: 20.0 µg/mL
[6]
  MIC: 30.0 µg/mL
B. cereus
  MIC: 4.0 µg/mL

## C[C@H]1COc2c(N3CCN(C)CC3)c(F)cc3c(=O)c(C(=O)O)cn1c23 [Levofloxacin]
H. influenzae [1]; [12]
  MIC: 0.05 µg/mL

## CCC[C@@H]1C[C@@H](C(=O)N[C@@H]([C@H]2O[C@H](SC)[C@H](O)[C@@H](O)[C@H]2O)[C@@H](C)O)N(C)C1 [Lincomycin]
[7]
  effect on MRSA and VRSA strains: no effect
[3]; [8]
  Mice death: 2
[3]; [9]
  Mice death: 1
[3]; 10 mg/kg orally 2 times a day, fifth day, head printed 1
  Mices death: 2
[3]; 10 mg/kg orally 2 times a day, sixth day column, head printed 2
  Mices death: 1
[3]; [10]
  Mice death: 1
[3]; [11]
  Mice death: 1
[3]; 20 mg/kg orally 2 times a day, fifth day, head printed 1
  Mices death: 3
[3]; 50 mg/kg orally 2 times a day, day 3
  Mices death: 1
[3]; 50 mg/kg orally 2 times a day, day 4
  Mices death: 1
[3]; 50 mg/kg orally 2 times a day, fifth day, head printed 1
  Mices death: 2
[5]; 24 hours
  change of the number of CFUs in biofilms: does not change the number of CFUs
[5]
  Number of CFU: 2.0 ± 1.0 × 10^8 CFU

## CC1(C)S[C@@H]2[C@H](NC(=O)COc3ccccc3)C(=O)N2[C@H]1C(=O)O [Phenoxymethylpenicillin, reference compound]
S. pyogenes; day 4
  Eradication, %: 10.14%
  Eradication, Number of patients: 7
S. pyogenes; day 8
  Eradication, %: 11.59%
  Eradication, Number of patients: 8
S. pyogenes; day 14
  Eradication, %: 13.04%
  Eradication, Number of patients: 9
S. aureus; day 4, enterally twice a day
  Eradication, %: 4.11%
  Eradication, Number of patients: 3
S. aureus; day 8
  Eradication, %: 9.59%
  Eradication, Number of patients: 7
S. aureus; day 14
  Eradication, %: 13.70%
  Eradication, Number of patients: 10

## CN(C)[C@@H]1C(O)=C(C(N)=O)C(=O)[C@@]2(O)C(O)=C3C(=O)c4c(O)cccc4[C@@](C)(O)[C@H]3C[C@@H]12 [Tetracycline]
H. influenzae [1]; [12]
  MIC: 2 µg/mL
